This passage reports EC50 and Emax results from patent US11851406B2, “Positive allosteric modulators of the muscarinic acetylcholine receptor M1” (Vanderbilt University, priority 2018, dated 2023).

Test [1] deals with T1, human mAChR M1 (Homo sapiens, UniProt P11229).
T1 sequence (P11229 1-460): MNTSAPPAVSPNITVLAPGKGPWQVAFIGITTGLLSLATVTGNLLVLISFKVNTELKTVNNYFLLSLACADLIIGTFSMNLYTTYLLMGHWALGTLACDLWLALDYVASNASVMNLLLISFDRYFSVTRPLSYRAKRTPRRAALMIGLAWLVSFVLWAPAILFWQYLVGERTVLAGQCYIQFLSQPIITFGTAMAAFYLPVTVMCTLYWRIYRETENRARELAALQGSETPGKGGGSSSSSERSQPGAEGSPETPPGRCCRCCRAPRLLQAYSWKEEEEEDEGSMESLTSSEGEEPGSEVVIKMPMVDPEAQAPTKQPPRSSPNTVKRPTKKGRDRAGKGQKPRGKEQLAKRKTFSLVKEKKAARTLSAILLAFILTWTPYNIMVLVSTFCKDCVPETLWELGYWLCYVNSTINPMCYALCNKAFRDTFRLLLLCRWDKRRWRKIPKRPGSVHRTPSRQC
Briefly: mAChR M1 cell-based functional assay (calcium mobilization), PAM activity: increase in the EC20 acetylcholine response. To be noted: CHO-K1 cells expressing hM1; calcium flux (Fluo-4); potentiation of EC20 acetylcholine response. An excerpt:
(§1) Chinese hamster ovary (CHO-K1) cells stably expressing rat (r)M1 were purchased from the American Type Culture Collection and cultured according to their indicated protocol. CHO cells stably expressing human (h)M2, hM3, and hM5 were described previously (Levey, et al., 1991); hM1 and hM4 cDNAs were purchased from Missouri S&T cDNA Resource; rM4 cDNA was provided by T. I. Bonner (National Institutes of Health, Bethesda, Md.). rM2 and rM3 were cloned from a rat brain cDNA library and sequence verified. hM1, rM2, rM3, hM4, and rM4 cDNAs were used to stably transfect CHO-K1 cells purchased from the American Type Culture Collection using Lipofectamine2000. To make stable rM2, hM2, rM3, hM4, and rM4 cell lines for use in calcium mobilization assays, these cells also were stably transfected with a chimeric G-protein (Gqi5) (provided by B. R. Conklin, University of California, San Francisco) using Lipofectamine 2000. rM1, hM1, rM3, hM3, rM5, and hM5 cells were grown in Ham's F-12 medium containing 10% heat-inactivated fetal bovine serum (FBS), 20 mM HEPES, and 50 μg/mL G418 sulfate. rM2-Gqi5, hM2-Gqi5, and hM4-Gqi5 cells were grown in the same medium also containing 500 μg/mL Hygromycin B. Stable rM4-Gqi5 cells were grown in DMEM containing 10% heat-inactivated FBS, 20 mM HEPES, 400 μg/mL G418 sulfate, and 500 μg/mL Hygromycin B.
(§2) For high throughput measurement of agonist-evoked increases in intracellular calcium, CHO-K1 cells stably expressing muscarinic receptors were plated in growth medium lacking G418 and hygromycin at 15,000 cells/20 μL/well in Greiner 384-well black-walled, tissue culture (TC)-treated, clear-bottom plates (VWR). Cells were incubated overnight at 37° C. and 5% CO2. The next day, cells were washed using an ELX 405 (BioTek) with four washes (80 μL) of assay buffer then aspirated to 20 μL. Next, 20 μL of 16 μM Fluo-4/acetoxymethyl ester (Invitrogen, Carlsbad, Calif.) prepared as a 2.3 mM stock in DMSO and mixed in a 1:1 ratio with 10% (w/v) Pluronic F-127 and diluted in assay buffer was added to the wells and the cell plates were incubated for 50 min at 37° C. and 5% CO2. Dye was removed by washing with the ELX 405 (four 80 μL washes of assay buffer) then aspirated to 20 μL. Compound master plates were formatted in an 11 point CRC format (1:3 dilutions) in 100% DMSO with a starting concentration of 10 mM using the BRAVO liquid handler (Agilent). Test compound CRCs were then transferred to daughter plates (240 nL) using the Echo acoustic plate reformatter (Labcyte, Sunnyvale, Calif.) and then diluted into assay buffer (40 μL) to a 2× stock using a Thermo Fisher Combi (Thermo Fisher Scientific, Waltham, Mass.).
(§3) Calcium flux was measured using the Functional Drug Screening System (FDSS) 6000 (Hamamatsu Corporation, Tokyo, Japan) as an increase in the fluorescent static ratio. Compounds were applied to cells (20 μL, 2×) using the automated system of the FDSS 6000 at 4 s into the 300 s protocol and the data were collected at 1 Hz. At 144 s into the 300 s protocol, 10 μL of an EC20 concentration of the muscarinic receptor agonist acetylcholine was added (5×), followed by the addition of 12 μL an EC80 concentration of acetylcholine at the 230 s time point (5×). Agonist activity was analyzed as a concentration-dependent increase in calcium mobilization upon compound addition. Emax values for agonist activity are expressed relative to the maximum for acetylcholine. Positive allosteric modulator activity was analyzed as a concentration-dependent increase in the EC20 acetylcholine response. Antagonist activity was analyzed as a concentration-dependent decrease in the EC80 acetylcholine response. Concentration-response curves were generated using a four-parameter logistical equation in XLfit curve fitting software (IDBS, Bridgewater, N.J.) for Excel (Microsoft, Redmond, Wash.) or Prism (GraphPad Software, Inc., San Diego, Calif.).
(Calcium flux is commonly read through the fluorescence of an indicator in the cells.)

The target in test [2] is T1, human mAChR M1. Briefly: mAChR M1 cell-based functional assay (calcium mobilization), agonist activity upon compound addition alone. Particulars: CHO-K1 cells expressing hM1; for EC50: calcium mobilization upon compound addition, no acetylcholine; for Emax: compound alone, relative to the maximum for acetylcholine.
Description: as §1, §2, §3

The structures appear in SMILES notation. A value given as a limit tells only on which side of the number the result lay.

`Cc1c(Cc2ccc(-c3cnn(C)c3)nc2)cc(C(=O)N[C@H]2CCC[C@@H]2O)nc1-n1cccn1` [Compound 53, N-((1S,2S)-2-hydroxycyclopentyl)-5-methyl-4-((6-(1-methyl-1H-pyrazol-4-yl)pyridin-3-yl)methyl)-6-(1H-pyrazol-1-yl)picolinamide]: in test [1], the EC50 is 3.96 µM and the maximal effect (Emax) amounted to 75%. Moreover, in test [2], the EC50 is greater than 10 µM and the maximum response (Emax) amounted to 5%.

As to `Cn1cc(-c2ccc(Cc3cc(C(=O)N[C@H]4CCC[C@@H]4O)nc(-c4ccn(C)n4)c3)cn2)cn1` [Compound 6, N-((1S,2S)-2-hydroxycyclopentyl)-6-(1-methyl-1H-pyrazol-3-yl)-4-((6-(1-methyl-1H-pyrazol-4-yl)pyridin-3-yl)methyl)picolinamide], the Emax is 67% in test [1] and less than 5% in test [2]. The EC50 in test [2] was greater than 10 µM.

Regarding `Cn1ccc(-c2ccc(Cc3cc(C(=O)N[C@H]4CCC[C@@H]4O)nc(-c4ccn(C)n4)c3)cc2)n1` [Compound 38, N-((1S,2S)-2-hydroxycyclopentyl)-6-(1-methyl-1H-pyrazol-3-yl)-4-(4-(1-methyl-1H-pyrazol-3-yl)benzyl)picolinamide], in test [1], the EC50 was found to be 2.72 µM and the maximal effect (Emax) is 39%. Besides, in test [2], the concentration giving a half-maximal response (EC50) is greater than 10 µM and the Emax is less than 5%.

As to `Cc1c(Cc2ccc(-c3ccn(C)n3)cc2)cc(C(=O)NC[C@@H]2CCCO2)nc1-c1ccn(C)n1` [Compound 15, (S)-5-methyl-6-(1-methyl-1H-pyrazol-3-yl)-4-(4-(1-methyl-1H-pyrazol-3-yl)benzyl)-N-((tetrahydrofuran-2-yl)methyl)picolinamide], in test [1], the EC50 worked out at 4.61 µM and the Emax was determined as 82%. Further, in test [2], the EC50 is greater than 10 µM and the maximal effect (Emax) was less than 5%.

For the molecule `Cc1nc(-c2ccc(Cc3cc(C(=O)NC4CCOCC4)nc(-n4cccn4)c3)cc2)co1` [Compound 27, 4-(4-(2-methyloxazol-4-yl)benzyl)-6-(1H-pyrazol-1-yl)-N-(tetrahydro-2H-pyran-4-yl)picolinamide], the maximum response (Emax) in test [1] turned out to be 62%; in test [2], 6%. The 50% effective concentration (EC50) in test [2] was greater than 10 µM.

With `Cc1c(Cc2ccc(-c3ccn(C)n3)cc2)cc(C(=O)NC2CC3(COC3)C2)nc1-c1ccn(C)n1` [Compound 11, 5-methyl-6-(1-methyl-1H-pyrazol-3-yl)-4-(4-(1-methyl-1H-pyrazol-3-yl)benzyl)-N-(2-oxaspiro[3.3]heptan-6-yl)picolinamide], in test [1], the half-maximal effective concentration (EC50) came out at 4.72 µM and the Emax was 88%. Also, in test [2], the half-maximal effective concentration (EC50) was greater than 10 µM and the maximal effect (Emax) was less than 5%.

As to `Cc1c(Cc2ccc(-c3ccn(C)n3)cc2)cc(C(=O)N[C@H]2CCOC[C@@H]2O)nc1-c1ccn(C)n1` [Compound 9, N-((3R,4S)-3-hydroxytetrahydro-2H-pyran-4-yl)-5-methyl-6-(1-methyl-1H-pyrazol-3-yl)-4-(4-(1-methyl-1H-pyrazol-3-yl)benzyl)picolinamide], the EC50 in test [1] came to 0.542 µM; in test [2], 9.81 µM. Further, the Emax in test [1] worked out at 86%; in test [2] it was 18%.

In the case of `Cn1cc(-c2ccc(Cc3cc(C(=O)N[C@H]4CCOC[C@@H]4O)nc(-n4cccn4)c3)cn2)cn1` [Compound 18, N-((3R,4S)-3-hydroxytetrahydro-2H-pyran-4-yl)-4-((6-(1-methyl-1H-pyrazol-4-yl)pyridin-3-yl)methyl)-6-(1H-pyrazol-1-yl)picolinamide], the EC50 was 1.02 µM in test [1] and no less than 10 µM in test [2]. Further, the figures for the maximal effect (Emax) in test [1] and in test [2] were 85% and 13%, respectively.

Turning to `Cc1c(Cc2ccc(-c3cnn(C)c3)nc2)cc(C(=O)N[C@H]2CCCC[C@@H]2O)nc1-n1cccn1` [Compound 47, N-((1S,2S)-2-hydroxycyclohexyl)-5-methyl-4-((6-(1-methyl-1H-pyrazol-4-yl)pyridin-3-yl)methyl)-6-(1H-pyrazol-1-yl)picolinamide], in test [1], the EC50 is 0.675 µM and the maximal response (Emax) worked out at 85%. Further, in test [2], the EC50 was found to be 9.08 µM and the Emax was determined as 29%.

As a reminder, the EC50 is the concentration at which the effect is half-maximal. As usually defined, the Emax is the greatest response seen or fitted, relative to the assay's reference.
